Source: patent US20210252115A1, “INHIBITION OF CATALYTIC SITE COMMON TO MULTIPLE 3 ALPHA-OXIDOREDUCTASES FOR TREATMENT OF PROSTATE CANCER” (Health Research, Inc., priority 2016, published 2021)
“Also recorded” adds a separate entry of the source.

Assays:
LAPC-4 cells = assay: Androgen levels (LC-MS/MS) in transfected LAPC-4 cells; assay type: cell-based, human; details: for 5α-dione production after substrate treatment: 20 nM DIOL or 20 nM AND 12 h; for DHT levels after substrate treatment: 20 nM DIOL or 1 nM T 12 h, vs SFM
Procedure: LAPC-4 cells were plated at 1.2×10^5/well and CV-1 cells at 1×10^4/well in 6-well tissue culture plates (Corning). Media and cell pellets from two 6-well plates were combined to generate 1 media and 1 cell pellet sample for liquid chromatography-tandem mass spectrometry (LC-MS/MS) analysis. LAPC-4 cells were transfected using the Effectene Transfection Kit (Invitrogen, Grand Island, N.Y.). Forty-eight h after transfection, growth media was removed and LAPC-4 cells were washed once with Dulbecco's phosphate buffered saline (PBS, Corning). LAPC-4 cells were treated with serum-free complete media (SFM, Corning) alone or with 1 nM T, 20 nM DIOL 20 nM 5α-androstan-3α-ol-17-one (androsterone; AND) (Steraloids, Newport, R.I.) or 1 μM dutasteride (Selleckchem, Houston, Tex.) for 12 h. CV-1 cells were transfected using X-tremeGene HP transfection reagent (Roche Diagnostics Corporation, Indianapolis, Ind.). After 48 h, growth media were aspirated, CV-1 cells were washed once with PBS and incubated in SFM alone or with 20 nM AND (Steraloids) for 12 h.
After 12 h treatment, media (total 24 mL) were collected in 50 mL conical tubes (Corning). Cells were released using trypsin and collected in 15 mL conical tubes (Corning). The cells were washed 3 times using PBS, re-suspended in 1 mL PBS and 5% of the cell suspension was removed for protein concentration measurement and western blot analysis. The remaining 95% of the cell suspension was centrifuged and the supernatant was removed and discarded. Cell pellets were stored at −80° C. until analyzed using LC-MS/MS.
(§1) Cell pellet and media samples were analyzed over 9 runs for 5 androgens T, DHT, dehydroepiandrosterone, ASD and AND using a validated LC-MS/MS method. […] Study samples were quantitated using aqueous-based spiked calibration standards and pre-spiked quality control samples prepared in 2× charcoal-stripped human postmenopausal female plasma (Bioreclamation, LLC, Westbury, N.Y.).
Androgen concentrations (pmoles/mg protein) in cell lysates measured using LC-MS/MS (ng/mL) were multiplied by the total volume of the lysate (1 mL), normalized by the total amount of protein of the cell pellet (mg), divided by the molecular weight of the androgen (ng/nmole), and converted to pmoles. Media androgen concentrations (ng/mL) were multiplied by the total volume of media (24 mL), normalized against total protein of the cell culture (mg), divided by the molecular weight of the androgen (ng/nmole) and converted to pmoles. Cell pellet and media androgen concentrations were reported combined in Results and separately in Supplemental Results. Experiments were performed in triplicate.
Cell pellets were resuspended in HPLC-grade water and vortexed or sonicated to disrupt cell membranes to obtain a homogeneous suspension. Samples were extracted using 0.25 ml quality control, plasma blank or sample in 0.75-2.0 mL HPLC-grade water, 0.1 ml internal standard (IS) solution (75.0/225 pg/mL d3-T/d3-DHT) and 4 mL methyl-tert-butyl ether (MTBE, Omnisolve®, EMD Milipore, Billerica, Mass.) in glass screw-top tubes. Calibrators were prepared using 50 μl spiking solution prepared in 75% methanol and added to the extraction tube. Either the entire 1 mL cell pellet suspension was added to the extraction tube and the original container rinsed with 25% methanol in water or samples were volume and compositionally corrected. Tubes were capped with Teflon-lined caps, vortexed, rotated 15 min and centrifuged using a Sorvall model RT6000B centrifuge (Thermo Scientific) at 2,800 rpm and 4° C. for 15-30 min to separate liquid phases. The aqueous phase was frozen in a dry ice/acetone bath and MTBE layer was poured into a clean glass conical tube. MTBE was evaporated at 37° C. with nitrogen and the residue was reconstituted with 60% methanol. The suspension was centrifuged using Heraeus Multifuge X3R centrifuge (Thermo Scientific) at 2,800 rpm and 4° C. for 5 min to separate insoluble materials. An aliquot of the supernatant was injected. […]

VCaP cells = assay: Androgen levels (LC-MS/MS) in VCaP cells; assay type: cell-based, human; details: for DHT levels / DHT synthesis: VCaP in SFM, 1 μM dutasteride 12 h, no substrate added; for DHT levels after substrate treatment: VCaP, 12 h in SFM with 20 nM DIOL, 20 nM AND or 1 nM T, one cell pellet per condition
Procedure: FIG. 8: Intracellular T and DHT levels from VCaP cells; Related to FIG. 3. VCaP cells were treated for 12 h in SFM with or without 1 μM Dut, 1 nM T, 20 nM DIOL or 20 nM AND. VCaP cells were harvested, one cell pellet was analyzed for each condition and androgen levels were measured using LC-MS/MS as described in Methods.
(§2) Experiments were performed in triplicate.
(§3) Empty plasmid, or plasmids for over-expression of RDH16 wild-type or RDH16-Y176F, K180R, were expressed into VCaP, C4-2 or CWR-R1 cells and DHT levels were measured using LC-MS/MS. […] C4-2 cells produced measurable levels of DHT that were reduced by dutasteride treatment (p=0.001; FIG. 6C; Table 10). […] C4-2 cells that expressed RDH16-Y176, K180R produced DHT levels similar to C4-2 cells with empty plasmid.

C4-2 cells = assay: DHT levels (LC-MS/MS) in transfected C4-2 cells; assay type: cell-based, human
Procedure: as §2, §3

CWR-R1 cells = assay: DHT levels (LC-MS/MS) in transfected CWR-R1 cells; assay type: cell-based, human
Procedure: as §2, §3

LNCaP cells = assay: Androgen levels (LC-MS/MS) in transfected LNCaP cells; assay type: cell-based, human; details: dutasteride 12 h, cell pellet
Procedure: FIG. 11: Intracellular LNCaP T levels after treatment with dutasteride or SFM. Related to FIG. 6. LNCaP cells were transfected with empty plasmid, wild-type or Y176F, K180R RDH16, treated with SFM or SFM with dutasteride for 12 h and cell pellet androgen levels were measured using LC-MS/MS. T levels for LNCaP and western blot analysis for DDK tag.
as §2

[1] = CaP, background statement; cited from earlier work
CV-1 cells = details: CV-1, 20 nM AND 12 h, measurable only in the media
Procedure: LAPC-4 cells were plated at 1.2×10^5/well and CV-1 cells at 1×10^4/well in 6-well tissue culture plates (Corning). Media and cell pellets from two 6-well plates were combined to generate 1 media and 1 cell pellet sample for liquid chromatography-tandem mass spectrometry (LC-MS/MS) analysis. LAPC-4 cells were transfected using the Effectene Transfection Kit (Invitrogen, Grand Island, N.Y.). Forty-eight h after transfection, growth media was removed and LAPC-4 cells were washed once with Dulbecco's phosphate buffered saline (PBS, Corning). […]
After 12 h treatment, media (total 24 mL) were collected in 50 mL conical tubes (Corning). […] Cell pellets were stored at −80° C. until analyzed using LC-MS/MS.
as §1
Androgen concentrations (pmoles/mg protein) in cell lysates measured using LC-MS/MS (ng/mL) were multiplied by the total volume of the lysate (1 mL), normalized by the total amount of protein of the cell pellet (mg), divided by the molecular weight of the androgen (ng/nmole), and converted to pmoles. […]

SRD5A = assay: Tissue DHT levels (LC-MS/MS), Selenium and Finasteride Pre-Treatment Trial; assay type: in vivo, human; details: research subjects with CaP before radical prostatectomy, benign and malignant macro-dissected samples; data not shown

SMILES: C[C@]12C=CC(=O)N[C@@H]1CC[C@@H]1[C@@H]2CC[C@]2(C)[C@@H](C(=O)Nc3cc(C(F)(F)F)ccc3C(F)(F)F)CC[C@@H]12 [dutasteride]
- DHT levels (LAPC-4 cells; LAPC-4 expressing mutant RDH16 or DHRS9 plus dutasteride, vs LAPC-4 treated with dutasteride alone): lowered further
- DHT levels (LAPC-4 cells; LAPC-4 expressing wild-type RDH16 or DHRS9, 1 μM dutasteride 12 h vs SFM): No effect
- DHT levels (LAPC-4 cells; LAPC-4 with empty plasmid, 1 μM dutasteride 12 h vs SFM, cell pellet, p=0.041): decreased; also recorded: lower
- T levels (LAPC-4 cells; all LAPC-4 cells except those expressing RDH5-Δcat, dutasteride 12 h, cell pellet): lowered
- DHT levels (VCaP cells; VCaP expressing wild-type RDH16, dutasteride vs SFM): affected minimally
- DHT levels / DHT synthesis (VCaP cells): did not lower
- DHT levels / DHT synthesis (VCaP cells; listed as Dutasteride): did not impair DHT synthesis
- DHT levels (C4-2 cells; C4-2 expressing wild-type RDH16, dutasteride vs SFM): appeared to be reduced
- DHT levels (C4-2 cells; C4-2 with empty plasmid, dutasteride vs SFM, p=0.001 in text): reduced
- DHT levels (CWR-R1 cells; CWR-R1 expressing RDH16-Y176F, K180R, dutasteride vs SFM): appeared lower
- DHT levels (CWR-R1 cells; CWR-R1 with empty plasmid or wild-type RDH16, dutasteride vs SFM): did not lower
- T levels (LNCaP cells): not detected
- intratumoral DHT levels [1]: not depleted

SMILES: C[C@]12CC[C@@H](O)C[C@@H]1CC[C@@H]1[C@@H]2CC[C@]2(C)C(=O)CC[C@@H]12 [AND, 5α-androstan-3α-ol-17-one]
- 5α-dione production after substrate treatment (LAPC-4 cells; LAPC-4 with empty plasmid): produced
- DHT levels after substrate treatment (VCaP cells): increased
- 5α-dione production after substrate treatment (CV-1 cells): only a small amount

SMILES: C[C@]12CC[C@H]3[C@@H](CCC4=CC(=O)CC[C@@]43C)[C@@H]1CC[C@@H]2O [T, testosterone]
- DHT levels after substrate treatment (LAPC-4 cells; LAPC-4 with empty plasmid): higher
- DHT levels after substrate treatment (VCaP cells): not

SMILES: CC(C)(C)NC(=O)[C@H]1CC[C@H]2[C@@H]3CC[C@H]4NC(=O)C=C[C@]4(C)[C@H]3CC[C@]12C [finasteride]
- CaP tissue levels of DHT (SRD5A): decreased

SMILES: C[C@]12CC[C@@H](O)C[C@@H]1CC[C@@H]1[C@@H]2CC[C@]2(C)[C@@H](O)CC[C@@H]12 [DIOL, 5α-androstane-3α, 17β-diol]
- DHT levels after substrate treatment (LAPC-4 cells; LAPC-4 with empty plasmid): higher
- 5α-dione production after substrate treatment (LAPC-4 cells; LAPC-4 with empty plasmid): produced
- DHT levels after substrate treatment (VCaP cells): increased
